Marks after values point to notes of the source that are not given here.
Legend:
[1] = system: patients receiving moderately to highly emetogenic chemotherapy; test: Randomized, double-blind, placebo-controlled study: antiemetic efficacy in delayed CINV (Days 2-5); type: in vivo, human
Description: (§1) A randomized, double-blind, placebo-controlled, parallel-group study evaluating the antiemetic efficacy and tolerability of oral dronabinol alone, dronabinol in combination with ondansetron, ondansetron alone, and placebo in patients receiving moderate to high emetogenic chemotherapy was conducted. All patients received dexamethasone 20 mg and ondansetron 16 mg intravenously prechemotherapy. […] On Day 2, placebo or fixed doses of 10 mg dronabinol, 16 mg ondansetron, or dronabinol plus ondansetron were administered. On Days 3-5, patients received placebo, flexible doses of 10-20 mg dronabinol, 8-16 mg ondansetron, or dronabinol plus ondansetron. Rescue antiemetics were permitted after using the maximum dose of medication. The primary efficacy variable was total response (“TR”) to study medication (TR=nausea intensity<5 mm on a 100-mm visual analog scale, no vomiting/retching, no rescue antiemetic). Secondary efficacy parameters included nausea status and intensity, as well as episodes of vomiting/retching. […] TR and presence/absence of nausea were evaluated using the Fisher's Exact Test. Tolerability was assessed by physical examination and adverse events.
All efficacy analyses were based on the ITT population.
This was a randomized, double-blind, placebo-controlled, parallel-group, 5-day study to evaluate the antiemetic efficacy and safety of oral dronabinol (sole under the trade name, Marinol®) alone, and in combination with ondansetron (sole under the trade name, Zofran®), versus ondansetron alone in patients receiving moderately to highly emetogenic chemotherapy. The investigator obtained written approval from the Institutional Review Board, and the study was conducted in accordance with the Declaration of Helsinki.
Patients who entered the study were to undergo cancer chemotherapy with moderately to highly emetogenic agents on Day 1 when they were randomized into 1 of 4 treatment groups: dronabinol alone (Group Dronabinol), ondansetron alone (Group Ondansetron), combination therapy with dronabinol and ondansetron (Group Dronabinol/Ondansetron), or placebo (Group Placebo). All patients received a standard prechemotherapy regimen of dexamethasone (20 mg) and ondansetron (16 mg). […] Placebo patients received matching placebo prechemotherapy and postchemotherapy on Day 1.
(§2) A kit of open-label antiemetics (metoclopramide 10 mg, prochlorperazine 5 mg, and prochlorperazine 25-mg suppository) was provided to the study participants for use on Days 1 through 8 as rescue medications to treat intolerable nausea and vomiting and/or retching after using the maximum dose of study medication at any dosing interval. Patients recorded the use of rescue medication and returned the unused portion of the kit.
Each morning, patients recorded the number of vomiting and/or retching episodes in the previous day. In addition, the patient recorded the daily presence or absence of nausea and its duration.
The primary efficacy measure was the incidence of total response to treatment following administration of moderately to highly emetogenic chemotherapeutic agents. Total response was defined as no vomiting and/or retching, intensity of nausea <5 mm on a 100-mm Visual Analog Scale (VAS scale 0-100 mm; 0 mm=no nausea; 100 mm=intractable nausea), and no use of rescue medication.
The secondary efficacy analysis included patients who took rescue medication. However, analyses were conducted only on data collected before the use of any rescue medication. The secondary efficacy assessments were complete response, presence or absence of nausea, episodes of vomiting and/or retching, duration of nausea and vomiting and/or retching, intensity of nausea measured by VAS, ECOG (wellness), and QoL. Complete response for vomiting/retching was defined as no vomiting/retching, intensity of nausea of ≦30 mm on the VAS, and no use of rescue therapy.

[2] = system: patients receiving moderately to highly emetogenic chemotherapy; test: Safety and tolerability: treatment-emergent adverse events (safety population)
Description: as §1
AEs and concomitant medications were also assessed.

[3] = system: patients receiving moderately to highly emetogenic chemotherapy; test: ECOG (wellness) and McCorkle Symptom Distress Scale (QoL) assessment; type: in vivo, human
Description: The secondary efficacy analysis included patients who took rescue medication. However, analyses were conducted only on data collected before the use of any rescue medication. The secondary efficacy assessments were complete response, presence or absence of nausea, episodes of vomiting and/or retching, duration of nausea and vomiting and/or retching, intensity of nausea measured by VAS, ECOG (wellness), and QoL. Complete response for vomiting/retching was defined as no vomiting/retching, intensity of nausea of ≦30 mm on the VAS, and no use of rescue therapy. The presence or absence of nausea, episodes of vomiting and/or retching, and duration of nausea and vomiting and/or retching were assessed from daily patient telephone diary entries completed each morning to report the previous day. The patient was prompted through the Interactive Voice Response System to use the standard VAS to assess nausea intensity. The ECOG (wellness) assessment was clinician administered at screening and again on Day 6, Day 7, or Day 8 (or early termination). The possible range of the ECOG assessment was 0 to 4, where 0 was normal activity with no limitations and 4 was very sick, rarely out of bed.
The McCorkle Symptom Distress Scale (QoL assessment) evaluation was conducted on Day 1 (postchemotherapy) and again on Day 6, Day 7, or Day 8 (or early termination). […]

[4] = system: patients receiving moderately to highly emetogenic chemotherapy; test: Other analyses: rescue antiemetic use and compliance with study medication; type: in vivo, human
Description: as §2
For the primary efficacy parameter, a logistic regression model was used for the primary analysis and a Cochran-Mantel-Haenszel (“CMH”) test stratified by pooled center was performed as a supportive analysis. Continuous secondary efficacy parameters were analyzed for all pairwise comparisons using a 2-way analysis of variance (“ANOVA”) with treatment and pooled center as fixed factors. For data that was not normally distributed, data were ranked, and an ANOVA was performed on the ranked scores. Categorical secondary efficacy parameters were analyzed for all pairwise comparisons using the CMH test stratified by pooled center. No adjustment for multiple comparisons was performed for the secondary efficacy parameters. No interactions were examined for the secondary efficacy parameters. Compliance with study medication was defined as taking all doses of supplied medication and was measured throughout the trial.

CCCCCc1cc(O)c2c(c1)OC(C)(C)[C@@H]1CCC(C)=C[C@@H]21 [Dronabinol, delta-9-tetrahydrocannabinol]
Duration of nausea: 3-6 h ([1]; Day 2): 0 n (%)
Duration of nausea: 6-8 h ([1]; Day 2): 1 (8) n (%)
Duration of nausea: 8-10 h ([1]; Day 2): 0 n (%)
Duration of nausea: <3 h ([1]; Day 2): 1 (8) n (%)
Duration of nausea: >10 h ([1]; Day 2): 2 (15) n (%)
Duration of nausea: No nausea reported ([1]; Day 2): 9 (69) n (%)
Observed Duration of Vomiting/Retching (mean ± SD) ([1]; Day 2): 0.00 ± 0.00 h
Duration of nausea: 3-6 h ([1]; Day 3): 0 n (%)
Duration of nausea: 6-8 h ([1]; Day 3): 2 (17) n (%)
Duration of nausea: 8-10 h ([1]; Day 3): 0 n (%)
Duration of nausea: <3 h ([1]; Day 3): 2 (17) n (%)
Duration of nausea: >10 h ([1]; Day 3): 1 (8) n (%)
Duration of nausea: No nausea reported ([1]; Day 3): 7 (58) n (%)
Observed Duration of Vomiting/Retching (mean ± SD) ([1]; Day 3): 0.41 ± 1.36 h
Duration of nausea: 3-6 h ([1]; Day 4): 0 n (%)
Duration of nausea: 6-8 h ([1]; Day 4): 0 n (%)
Duration of nausea: 8-10 h ([1]; Day 4): 0 n (%)
Duration of nausea: <3 h ([1]; Day 4): 1 (11) n (%)
Duration of nausea: >10 h ([1]; Day 4): 0 n (%)
Duration of nausea: No nausea reported ([1]; Day 4): 8 (89) n (%)
Observed Duration of Vomiting/Retching (mean ± SD) ([1]; Day 4): 0.00 ± 0.01 h
Duration of nausea: 3-6 h ([1]; Day 5): 0 n (%)
Duration of nausea: 6-8 h ([1]; Day 5): 0 n (%)
Duration of nausea: 8-10 h ([1]; Day 5): 0 n (%)
Duration of nausea: <3 h ([1]; Day 5): 1 (13) n (%)
Duration of nausea: >10 h ([1]; Day 5): 0 n (%)
Duration of nausea: No nausea reported ([1]; Day 5): 7 (88) n (%)
Observed Duration of Vomiting/Retching (mean ± SD) ([1]; Day 5): 0.00 ± 0.00 h
Absence of nausea ([1]; Days 2-5): 71^† %
Absence of nausea (frequency/n) ([1]; Days 2-5): (10/14)
Mean vomiting/retching ([1]; Days 2-5): 0.2 episodes/day
Total response (frequency/n) ([1]; Days 2-5): (7/13)
Mean nausea intensity ([1]; Days 2-5, 100-mm VAS): 10.1^† mm
Absence of nausea ([1]; Days 2-5, listed as dronabinol): 71%
Total response ([1]; Days 2-5 LOCF end point, TR = nausea <5 mm VAS, no vomiting/retching, no rescue): 54%
Complete Response: No ([1]; LOCF End Point (Days 2-5)): 5 (38) n (%)
Complete Response: Yes ([1]; LOCF End Point (Days 2-5)): 8 (62) n (%)
antiemetic effect for delayed CINV ([1]; result in words): comparable with ondansetron
Adverse event: Asthenia ([2]; Safety Population): 2 (12) n (%)
Adverse event: Chest pain ([2]; Safety Population): 1 (6) n (%)
Adverse event: Constipation ([2]; Safety Population): 1 (6) n (%)
Adverse event: Diarrhea ([2]; Safety Population): 4 (24) n (%)
Adverse event: Dizziness ([2]; Safety Population): 1 (6) n (%)
Adverse event: Fatigue ([2]; Safety Population): 2 (12) n (%)
Adverse event: Headache ([2]; Safety Population): 0 n (%)
Adverse event: Hyperglycemia ([2]; Safety Population): 0 n (%)
Adverse event: Insomnia ([2]; Safety Population): 0 n (%)
Patients who permanently discontinued study medication because of a TEAE ([2]; Safety Population): 1 (6) n (%)
Patients with at least 1 SAE ([2]; Safety Population): 2 (12) n (%)
Patients with at least 1 TEAE ([2]; Safety Population): 14 (82) n (%)
Patients with at least 1 TEAE leading to dose reduction ([2]; Safety Population): 0 n (%)
Patients with at least 1 severe TEAE ([2]; Safety Population): 2 (12) n (%)
incidence of CNS-related events ([2]; result in words): low and few CNS-related AEs
tolerability ([2]; result in words): well tolerated
McCorkle Symptom Distress Scale (QoL), mean change from baseline ([3]; Day 1 versus Day 6, 7 or 8, lower values = less distress): −2.0±4.2
ECOG (wellness) change after treatment ([3]; result in words): Shifts in ECOG from 1 to 0 (improvement)
patients who required rescue medicine ([4]; Day 5): 12%
Rescue antiemetics used (patients) ([4]; whole study): 24%

— patent US20070072938A1, “DRONABINOL TREATMENT OF DELAYED CHEMOTHERAPY-INDUCED NAUSEA AND VOMITING” (priority 2005, published 2007)
